From patent US20240376085A1 (Janssen Pharmaceutica NV, priority 2021, published 2024) come the findings set out here.

For test [1], the system named is IL-17A-induced G-CSF production in human normal keratinocyte (NHK). In words: NHK assay: IL-17A-induced G-CSF production in normal human keratinocytes. Format: cell-based. The note with it: 24 h, IL-17A 5 ng/mL, average if tested more than once. The gist of the method: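 IC50 derives from G-CSF in supernatants, quantified by HTRF from a standard curve, with CellTiter-Glo viability compared to DMSO control. Before a 24 h, 37°C culture of normal human keratinocytes at 3000–4000 cells/well, compound dilutions were preincubated 1 h at rt with human IL-17A (5 ng/mL final), with 0.2% DMSO and 5% FBS.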

The target of another test is T1, IL-17A : IL-17RA binding (Homo sapiens, UniProt Q16552, K93Q).
T1 construct: Name: IL-17A-Flag
T1 sequence (Q16552 with tags, fused parts or gaps K93Q): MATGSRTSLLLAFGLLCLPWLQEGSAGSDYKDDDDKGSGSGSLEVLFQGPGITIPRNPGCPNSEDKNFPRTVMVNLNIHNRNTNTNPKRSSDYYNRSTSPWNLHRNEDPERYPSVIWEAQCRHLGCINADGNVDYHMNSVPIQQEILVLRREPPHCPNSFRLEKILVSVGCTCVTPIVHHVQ
In words: IL-17A(FLAG-tagged):IL-17RA(His-tagged) binding disruption Eu-HTRF assay, Protocol 1. The note with it: FLAG-IL-17A 2.5 nM at 2x final concentration; average if tested more than once. An outline of the steps:
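IC50 came from a one-site competition fit of the acceptor/donor (665/620 nm) HTRF ratio. His-tagged IL-17RA, Eu-anti-FLAG and D2-anti-His were added after a 1 h rt compound preincubation with FLAG-tagged IL-17A dimer in PBS/0.01% Triton X-100, followed by 2 h at rt before reading.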
(Time-resolved FRET reads energy transfer from a long-lived donor to a nearby acceptor.)

What is called IC50 is the midpoint of a concentration-inhibition curve.

Each structure is given as a SMILES string. Bounds are passed on as bounds.

In the case of `C[C@@H](NC(=O)CCC(F)(F)F)c1ccc2[nH]c([C@@H](NC(=O)c3cn(CC45CC(C#N)(C4)C5)nn3)C3CCC(F)(F)CC3)nc2c1` [Example 79, 1-((3-Cyanobicyclo[1.1.1]pentan-1-yl)methyl)-N—((S)-(4,4-difluorocyclohexyl)(5-((R)-1-(4,4,4-trifluorobutanamido)ethyl)-1H-benzo[d]imidazol-2-yl)methyl)-1H-1,2,3-triazole-4-carboxamide], the IC50 in test [1] (Homo sapiens, Keratinocyte) is more than 100 nM; at IL-17A : IL-17RA binding, more than 100 nM.
Turning to `CC(C)(OC[C@H](NC(=O)c1nonc1C1CC1)c1nc2ccc([C@H](NC(=O)CC3CC(F)(F)C3)C3CC3)cc2[nH]1)C(F)(F)F` [Example 159, 4-Cyclopropyl-N—((R)-1-(6-((R)-cyclopropyl(2-(3,3-difluorocyclobutyl)acetamido)methyl)-1H-benzo[d]imidazol-2-yl)-2-((1,1,1-trifluoro-2-methylpropan-2-yl)oxy)ethyl)-1,2,5-oxadiazole-3-carboxamide], the IC50 in test [1] (Homo sapiens, Keratinocyte) is less than 50 nM; at IL-17A : IL-17RA binding it was less than 50 nM.
With `C[C@@H](NC(=O)CCC(F)(F)F)c1ccc2[nH]c([C@@H](NC(=O)C3CC3)C3CCC(F)(F)CC3)nc2c1` [Example 94, N—((S)-(4,4-Difluorocyclohexyl)(5-((R)-1-(4,4,4-trifluorobutanamido)ethyl)-1H-benzo[d]imidazol-2-yl)methyl)cyclopropanecarboxamide], the IC50 in test [1] (Homo sapiens, Keratinocyte) is more than 100 nM; on IL-17A : IL-17RA binding it was more than 100 nM.
For the molecule `C[C@@H](NC(=O)CCC(F)(F)F)c1ccc2[nH]c(C(CC(C)(C)C(F)(F)F)NC(=O)c3cnn(CC4CC4)n3)nc2c1` (single isomer, unassigned) [Example 218, 2-(Cyclopropylmethyl)-N—((S*)-4,4,4-trifluoro-3,3-dimethyl-1-(5-((R)-1-(4,4,4-trifluorobutanamido)ethyl)-1H-benzo[d]imidazol-2-yl)butyl)-2H-1,2,3-triazole-4-carboxamide], the IC50 (in test [1]; at IL-17A : IL-17RA binding) was more than 100 nM throughout.
With `C[C@@H](NC(=O)CCC(F)(F)F)c1ccc2[nH]c([C@@H](NC(=O)c3ccn4c3CCC4)C3CCC(F)(F)CC3)nc2c1` [Example 210, N—((S)-(4,4-Difluorocyclohexyl)(5-((R)-1-(4,4,4-trifluorobutanamido)ethyl)-1H-benzo[d]imidazol-2-yl)methyl)-2,3-dihydro-1H-pyrrolizine-7-carboxamide], the IC50 is more than 100 nM in test [1] (Homo sapiens, Keratinocyte) and more than 100 nM on IL-17A : IL-17RA binding.
For the molecule `CC(C)(OC[C@H](NC(=O)c1nocc1C1CC1)c1nc2cc([C@H](NC(=O)CC3CC(F)(F)C3)C3CC3)ccc2[nH]1)C(F)(F)F` [Example 268, 4-Cyclopropyl-N—((R)-1-(5-((R)-cyclopropyl(2-(3,3-difluorocyclobutyl)acetamido)methyl)-1H-benzo[d]imidazol-2-yl)-2-((1,1,1-trifluoro-2-methylpropan-2-yl)oxy)ethyl)isoxazole-3-carboxamide], the IC50 in test [1] (Homo sapiens, Keratinocyte) is 50 to 100 nM; on IL-17A : IL-17RA binding, less than 50 nM.
For `CCc1nonc1C(=O)NC(CC(C)(C)C(F)(F)F)c1nc2cc([C@@H](C)NC(=O)CCC(F)(F)F)ccc2[nH]1` (single isomer, unassigned) [Example 197, 4-Ethyl-N—((S*)-4,4,4-trifluoro-3,3-dimethyl-1-(5-((R)-1-(4,4,4-trifluorobutanamido)ethyl)-1H-benzo[d]imidazol-2-yl)butyl)-1,2,5-oxadiazole-3-carboxamide], in that order: 50 to 100 nM and less than 50 nM.
Regarding `C[C@@H](NC(=O)CCC(F)(F)F)c1ccc2[nH]c([C@@H](NC(=O)c3ncnn3C)C3CCC(F)(F)CC3)nc2c1` [Example 31, N—[(S)-(4,4-Difluorocyclohexyl)-[6-[(1R)-1-(4,4,4-trifluorobutanoylamino)ethyl]-1H-benzimidazol-2-yl]methyl]-2-methyl-1,2,4-triazole-3-carboxamide], the IC50 in test [1] (Homo sapiens, Keratinocyte) is more than 100 nM; on IL-17A : IL-17RA binding, more than 100 nM.
Take `C[C@@H](NC(=O)CCC(F)(F)F)c1ccc2[nH]c([C@@H](NC(=O)c3ncnn3CCC(F)F)C3CCC(F)(F)CC3)nc2c1` [Example 41, N—[(S)-(4,4-Difluorocyclohexyl)-[6-[(1R)-1-(4,4,4-trifluorobutanoylamino)ethyl]-1H-benzimidazol-2-yl]methyl]-2-(3,3-difluoropropyl)-1,2,4-triazole-3-carboxamide]: the concentration for half-maximal inhibition (IC50) in test [1] (Homo sapiens, Keratinocyte) is more than 100 nM; on IL-17A : IL-17RA binding it was more than 100 nM.
`Cn1nccc1C(=O)N[C@H](c1nc2cc(C(CC3CCC3)NC(=O)CCC(F)(F)F)ccc2[nH]1)C1CCC(F)(F)CC1` (single isomer, unassigned) [Example 47, N—((S)-(5-((R*)-2-Cyclobutyl-1-(4,4,4-trifluorobutanamido)ethyl)-1H-benzo[d]imidazol-2-yl)(4,4-difluorocyclohexyl)methyl)-1-methyl-1H-pyrazole-5-carboxamide]: the IC50 in test [1] is less than 50 nM; at IL-17A : IL-17RA binding it was more than 100 nM.
For the molecule `C[C@@H](NC(=O)CCC(F)(F)F)c1ccc2[nH]c([C@@H](NC(=O)c3cnn(CCC(F)(F)F)n3)[C@@H]3CCCC(F)(F)C3)nc2c1` [Example 265], the IC50 in test [1] (Homo sapiens, Keratinocyte) was more than 100 nM; at IL-17A : IL-17RA binding it was more than 100 nM.
As for `CC(C)n1nccc1C(=O)N[C@H](c1nc2cc([C@@H](NC(=O)CC3CC(F)(F)C3)C3CC3)ccc2[nH]1)C1CCC(F)(F)CC1` [Example 146, N—((S)-(5-((S)-Cyclopropyl(2-(3,3-difluorocyclobutyl)acetamido)methyl)-1H-benzo[d]imidazol-2-yl)(4,4-difluorocyclohexyl)methyl)-1-isopropyl-1H-pyrazole-5-carboxamide], the IC50 in test [1] (Homo sapiens, Keratinocyte) is more than 100 nM; at IL-17A : IL-17RA binding it was more than 100 nM.
`Cc1nonc1C(=O)N[C@H](c1nc2ccc([C@H](NC(=O)CC3CC(F)(F)C3)C3CC3)cc2[nH]1)[C@H]1C[C@@H]2[C@H](C1)C2(F)F` [Example 240, N—((S)-(6-((R)-Cyclopropyl(2-(3,3-difluorocyclobutyl)acetamido)methyl)-1H-benzo[d]imidazol-2-yl)((1R,3r,5S)-6,6-difluorobicyclo[3.1.0]hexan-3-yl)methyl)-4-methyl-1,2,5-oxadiazole-3-carboxamide]: the IC50 in test [1] (Homo sapiens, Keratinocyte) was more than 100 nM; on IL-17A : IL-17RA binding, less than 50 nM.
In the case of `Cc1c(C(=O)N[C@H](c2nc3ccc([C@@H](C)NC(=O)CCC(F)(F)F)cc3[nH]2)C2CCC(F)(F)CC2)cnn1CC(F)F` [Example 28, N—[(S)-(4,4-Difluorocyclohexyl)-[6-[(1R)-1-(4,4,4-trifluorobutanoylamino)ethyl]-1H-benzimidazol-2-yl]methyl]-1-(2,2-difluoroethyl)-5-methyl-pyrazole-4-carboxamide], the IC50 in test [1] (Homo sapiens, Keratinocyte) was more than 100 nM; on IL-17A : IL-17RA binding, more than 100 nM.
For `CC(NC(=O)CCC(F)(F)F)c1ccc2nc([C@H](CC(C)(C)C(F)(F)F)NC(=O)c3ccnn3CCC(F)(F)F)[nH]c2c1` (single isomer, unassigned) [Example 229, N—((S)-4,4,4-Trifluoro-3,3-dimethyl-1-(6-((S*)-1-(4,4,4-trifluorobutanamido)ethyl)-1H-benzo[d]imidazol-2-yl)butyl)-1-(3,3,3-trifluoropropyl)-1H-pyrazole-5-carboxamide], the IC50 was more than 100 nM in test [1] (Homo sapiens, Keratinocyte) and more than 100 nM on IL-17A : IL-17RA binding.
As to `C[C@@H](NC(=O)CCC(F)(F)F)c1ccc2[nH]c([C@@H](NC(=O)c3ncn(C)n3)C3CCC(F)(F)CC3)nc2c1` [Example 32, N—[(S)-(4,4-Difluorocyclohexyl)-[6-[(1R)-1-(4,4,4-trifluorobutanoylamino)ethyl]-1H-benzimidazol-2-yl]methyl]-1-methyl-1,2,4-triazole-3-carboxamide], the IC50 in test [1] (Homo sapiens, Keratinocyte) was more than 100 nM; at IL-17A : IL-17RA binding it was more than 100 nM.
As for `C[C@@H](NC(=O)CCC(F)(F)F)c1ccc2nc([C@@H](NC(=O)c3cccc(C#N)c3)C3CCC(F)(F)CC3)[nH]c2c1` [Example 131, 3-Cyano-N—((S)-(4,4-difluorocyclohexyl)(6-((R)-1-(4,4,4-trifluorobutanamido)ethyl)-1H-benzo[d]imidazol-2-yl)methyl)benzamide], the IC50 in test [1] (Homo sapiens, Keratinocyte) was more than 100 nM; at IL-17A : IL-17RA binding, more than 100 nM.
For `CC(CC(=O)N[C@H](C)c1ccc2nc([C@@H](NC(=O)c3ccnn3CC(F)(F)F)C3CCC(F)(F)CC3)[nH]c2c1)C(F)(F)F` (single isomer, unassigned) [Example 137, N—((S)-(4,4-Difluorocyclohexyl)(6-((R)-1-((S*)-4,4,4-trifluoro-3-methylbutanamido)ethyl)-1H-benzo[d]imidazol-2-yl)methyl)-1-(2,2,2-trifluoroethyl)-1H-pyrazole-5-carboxamide], the half-inhibitory concentration (IC50) in test [1] is 50 to 100 nM; at IL-17A : IL-17RA binding, more than 100 nM.
For `COCCn1ncc(C(=O)N[C@H](c2nc3cc([C@@H](C)NC(=O)CCC(F)(F)F)ccc3[nH]2)C2CCC(F)(F)CC2)n1` [Example 14, N—[(S)-(4,4-Difluorocyclohexyl)-[6-[(1R)-1-(4,4,4-trifluorobutanoylamino)ethyl]-1H-benzimidazol-2-yl]methyl]-2-(2-methoxyethyl)triazole-4-carboxamide], the IC50 is more than 100 nM in test [1] (Homo sapiens, Keratinocyte) and more than 100 nM on IL-17A : IL-17RA binding.
Consider `C[C@@H](NC(=O)CCC(F)(F)F)c1ccc2[nH]c([C@@H](NC(=O)c3cnn(CC4CCC4(F)F)n3)C3CCC(F)(F)CC3)nc2c1` (stereo partly drawn) [Example 87, 2-((2,2-Difluorocyclobutyl)methyl)-N—((S)-(4,4-difluorocyclohexyl)(5-((R)-1-(4,4,4-trifluorobutanamido)ethyl)-1H-benzo[d]imidazol-2-yl)methyl)-2H-1,2,3-triazole-4-carboxamide], for which the IC50 in test [1] (Homo sapiens, Keratinocyte) is more than 100 nM; on IL-17A : IL-17RA binding, more than 100 nM.
